Earlier results in patent US11103891B2, “Pharmaceutical composition” (priority 2011, dated 2021).

Conditions: immediate release preparations of levodopa

levodopa dose that reaches the brain: about 5%
SMILES: N[C@@H](Cc1ccc(O)c(O)c1)C(=O)O [levodopa]
